According to US20150289513A1, “USE OF A COMPOUND COMPRISING A POLYFLUOROBENZYL MOIETY AGAINST INSECTICIDE-RESISTANT PESTS” (priority 2012, published 2015):

Columns and labels:
Format in all cases: in vivo
[1] = system: Aedes aegypti (target-site-resistant strain: Grand Cayman); experiment: Glazed tile contact test, knock-down
Method: To produce a suitable preparation Transfluthrin was dissolved in acetone. The active compound solution was pipetted onto a glazed tile and, after drying, adult mosquitoes of the species Aedes aegypti (target-site-resistant strain: Grand Cayman) were placed onto the treated tile. The exposition time was 30 minutes.
(§1) 0.25 hours, 0.5 hours, 1 hour, 2 hour, 3 hour, 4 hour and 24 hours after contact to the treated surface, the knock-down proportion of the test animals in % was determined. Here, 100% (effect) means that all mosquitoes have been killed; 0% (effect) means that none of the mosquitoes have been killed.

[2] = system: Anopheles gambiae (strain: Akron); experiment: Glazed tile contact test, knock-down
Method: (§2) To produce a suitable preparation Transfluthrin was dissolved in acetone. The active compound solution was pipetted onto a glazed tile and, after drying, adult mosquitoes of the species: • Anopheles gambiae (target-site-resistant and metabolic-resistant strain: RSPH), • Anopheles gambiae (target-site-resitant and metabolic-resistant strain: Tiassalé), • Anopheles gambiae (tar et-site-resitant and metabolic-resistant strain: Akron), • Anopheles gambiae (target-site-resistant strain: VK7), and • Anopheles funestus (metabolic-resistant strain FUMOZ-R) were placed onto the treated tile (each strain was tested on separate tiles). The exposition time was 30 minutes.
as §1

[3] = system: Anopheles gambiae (strain: Tiassalé); experiment: Glazed tile contact test, knock-down
Method: as §2, §1

[4] = system: Cimex Lectularius, strain Cincinnati (CIN-1); experiment: Spray test on bed bugs on glazed tile; conditions: for Amount of animals that are knocked down/killed: 10 bed bugs
Method: To produce a suitable preparation Transfluthrin was dissolved in acetone in various concentrations (0.1 mg Transfluthrin/ml; 0.01 mg Transfluthrin/ml and 0.001 mg Transfluthrin/ml). Efficacy tests were done by placing 10 bed bug test animals (Cimex Lectularius, strain Cincinnati (CIN-1)) onto a glazed tile. The prepared solutions in various concentractions were sprayed with a glass nozzle onto the bed bugs on the glazed tile. After spraying the bed bugs were transferred to plastic cups. 5 minutes, 10 minutes, 15 minutes, 20 minutes, 0.5 hour, 1 hour, 2 hour, 4 hour and 24 hours after the treatment, the knock-down proportion of the test animals was determined.

[5] = 0.064 g/ha, 0.25 h after contact
[6] = 0.064 g/ha, 0.5 h after contact
[7] = 0.32 g/ha, 0.25 h after contact

CC1(C)[C@H](C=C(Cl)Cl)[C@H]1C(=O)OCc1c(F)c(F)cc(F)c1F [Transfluthrin, (1R,3S)-3-(2,2-Dichlorovinyl)-2,2-dimethyl-1-cyclopropanecarboxylic acid (2,3,5,6-tetrafluorophenyl)methyl ester]
70%: Effect % ([1]; 1.6 g/ha, 0.25 h after contact) | Effect % ([1]; 1.6 g/ha, 1 h after contact) | Effect % ([1]; 1.6 g/ha, 2 h after contact) | Effect % ([1]; 1.6 g/ha, 24 h after contact)
15%: Effect % ([2]; 0.064 g/ha, 24 h after contact) | Effect % ([3]; 0.064 g/ha, 1 h after contact) | Effect % ([3]; 0.064 g/ha, 2 h after contact) | Effect % ([3]; 0.064 g/ha, 3 h after contact) | Effect % ([3]; 0.32 g/ha, 0.5 h after contact) | Effect % ([3]; 0.32 g/ha, 24 h after contact) | Effect % ([3]; 1.6 g/ha, 0.5 h after contact)
1: Amount of animals that are knocked down/killed ([4]; 0.001 mg Transfluthrin/ml Aceton, 60 min after spray) | Amount of animals that are knocked down/killed ([4]; 0.001 mg Transfluthrin/ml Aceton, 120 min after spray)
0%: Effect % [1, 6] | Effect % ([1]; 0.064 g/ha, 1 h after contact) | Effect % ([1]; 0.064 g/ha, 2 h after contact) | Effect % ([1]; 0.064 g/ha, 3 h after contact) | Effect % ([1]; 0.064 g/ha, 4 h after contact) | Effect % ([2]; 0.32 g/ha, 0.5 h after contact) | Effect % ([3]; 1.6 g/ha, 0.25 h after contact) | Effect % ([3]; 1.6 g/ha, 4 h after contact)
7: Amount of animals that are knocked down/killed ([4]; 0.01 mg Transfluthrin/ml Aceton, 1440 min after spray)
85%: Effect % ([3]; 8 g/ha, 2 h after contact) | Effect % ([3]; 8 g/ha, 4 h after contact) | Effect % ([3]; 40 g/ha, 4 h after contact) | Effect % ([3]; 40 g/ha, 24 h after contact) | Effect % ([3]; 200 g/ha, 24 h after contact)
6: Amount of animals that are knocked down/killed ([4]; 0.01 mg Transfluthrin/ml Aceton, 10 min after spray)
10: Amount of animals that are knocked down/killed ([4]; 0.01 mg Transfluthrin/ml Aceton, 20 min after spray) | Amount of animals that are knocked down/killed ([4]; 0.01 mg Transfluthrin/ml Aceton, 30 min after spray) | Amount of animals that are knocked down/killed ([4]; 0.01 mg Transfluthrin/ml Aceton, 60 min after spray) | Amount of animals that are knocked down/killed ([4]; 0.01 mg Transfluthrin/ml Aceton, 120 min after spray) | Amount of animals that are knocked down/killed ([4]; 0.01 mg Transfluthrin/ml Aceton, 240 min after spray) | Amount of animals that are knocked down/killed ([4]; 0.1 mg Transfluthrin/ml Aceton, 15 min after spray) | Amount of animals that are knocked down/killed ([4]; 0.1 mg Transfluthrin/ml Aceton, 20 min after spray) | Amount of animals that are knocked down/killed ([4]; 0.1 mg Transfluthrin/ml Aceton, 30 min after spray) | Amount of animals that are knocked down/killed ([4]; 0.1 mg Transfluthrin/ml Aceton, 60 min after spray) | Amount of animals that are knocked down/killed ([4]; 0.1 mg Transfluthrin/ml Aceton, 120 min after spray) | Amount of animals that are knocked down/killed ([4]; 0.1 mg Transfluthrin/ml Aceton, 240 min after spray)
30%: Effect % ([1]; 0.32 g/ha, 1 h after contact)
5%: Effect % [1, 5] | Effect % [2, 5] | Effect % [2, 6] | Effect % ([2]; 0.064 g/ha, 3 h after contact) | Effect % ([2]; 0.064 g/ha, 4 h after contact) | Effect % [2, 7] | Effect % ([2]; 0.32 g/ha, 1 h after contact) | Effect % ([2]; 0.32 g/ha, 2 h after contact) | Effect % ([2]; 0.32 g/ha, 4 h after contact) | Effect % [3, 5] | Effect % [3, 7] | Effect % ([3]; 0.32 g/ha, 1 h after contact) | Effect % ([3]; 1.6 g/ha, 2 h after contact) | Effect % ([3]; 1.6 g/ha, 3 h after contact)
3: Amount of animals that are knocked down/killed ([4]; 0.001 mg Transfluthrin/ml Aceton, 1440 min after spray)
25%: Effect % ([1]; 0.32 g/ha, 0.5 h after contact) | Effect % ([1]; 0.32 g/ha, 4 h after contact)
80%: Effect % ([3]; 8 g/ha, 3 h after contact)
20%: Effect % [1, 7] | Effect % ([1]; 0.32 g/ha, 2 h after contact) | Effect % ([1]; 0.32 g/ha, 3 h after contact) | Effect % ([1]; 0.32 g/ha, 24 h after contact) | Effect % ([3]; 0.064 g/ha, 24 h after contact)
9: Amount of animals that are knocked down/killed ([4]; 0.01 mg Transfluthrin/ml Aceton, 15 min after spray) | Amount of animals that are knocked down/killed ([4]; 0.1 mg Transfluthrin/ml Aceton, 10 min after spray) | Amount of animals that are knocked down/killed ([4]; 0.1 mg Transfluthrin/ml Aceton, 1440 min after spray)
90%: Effect % ([1]; 8 g/ha, 0.25 h after contact) | Effect % ([1]; 8 g/ha, 2 h after contact) | Effect % ([1]; 8 g/ha, 4 h after contact) | Effect % ([1]; 8 g/ha, 24 h after contact) | Effect % ([3]; 8 g/ha, 0.25 h after contact) | Effect % ([3]; 40 g/ha, 3 h after contact)
10%: Effect % ([1]; 0.064 g/ha, 24 h after contact) | Effect % ([2]; 0.064 g/ha, 1 h after contact) | Effect % ([2]; 0.064 g/ha, 2 h after contact) | Effect % ([2]; 0.32 g/ha, 3 h after contact) | Effect % ([2]; 0.32 g/ha, 24 h after contact) | Effect % [3, 6] | Effect % ([3]; 0.064 g/ha, 4 h after contact) | Effect % ([3]; 0.32 g/ha, 2 h after contact) | Effect % ([3]; 0.32 g/ha, 3 h after contact) | Effect % ([3]; 0.32 g/ha, 4 h after contact) | Effect % ([3]; 1.6 g/ha, 1 h after contact) | Effect % ([3]; 1.6 g/ha, 24 h after contact)
60%: Effect % ([1]; 1.6 g/ha, 0.5 h after contact) | Effect % ([1]; 1.6 g/ha, 4 h after contact) | Effect % ([3]; 8 g/ha, 24 h after contact)
65%: Effect % ([1]; 1.6 g/ha, 3 h after contact)
efficient: Efficiency against insecticide-resistant bed bug strain ([4]; in vivo)
95%: Effect % ([3]; 40 g/ha, 2 h after contact)
100%: Effect % ([1]; 8 g/ha, 0.5 h after contact) | Effect % ([1]; 8 g/ha, 1 h after contact) | Effect % ([1]; 8 g/ha, 3 h after contact) | Effect % ([1]; 40 g/ha, 0.25 h after contact) | Effect % ([1]; 40 g/ha, 0.5 h after contact) | Effect % ([1]; 40 g/ha, 1 h after contact) | Effect % ([1]; 40 g/ha, 2 h after contact) | Effect % ([1]; 40 g/ha, 3 h after contact) | Effect % ([1]; 40 g/ha, 4 h after contact) | Effect % ([1]; 40 g/ha, 24 h after contact) | Effect % ([1]; 200 g/ha, 0.25 h after contact) | Effect % ([1]; 200 g/ha, 0.5 h after contact) | Effect % ([1]; 200 g/ha, 1 h after contact) | Effect % ([1]; 200 g/ha, 2 h after contact) | Effect % ([1]; 200 g/ha, 3 h after contact) | Effect % ([1]; 200 g/ha, 4 h after contact) | Effect % ([1]; 200 g/ha, 24 h after contact) | Effect % ([2]; 200 g/ha, 0.25 h after contact) | Effect % ([2]; 200 g/ha, 0.5 h after contact) | Effect % ([3]; 8 g/ha, 0.5 h after contact) | Effect % ([3]; 8 g/ha, 1 h after contact) | Effect % ([3]; 40 g/ha, 0.25 h after contact) | Effect % ([3]; 40 g/ha, 0.5 h after contact) | Effect % ([3]; 40 g/ha, 1 h after contact) | Effect % ([3]; 200 g/ha, 0.25 h after contact) | Effect % ([3]; 200 g/ha, 0.5 h after contact) | Effect % ([3]; 200 g/ha, 1 h after contact) | Effect % ([3]; 200 g/ha, 2 h after contact) | Effect % ([3]; 200 g/ha, 3 h after contact) | Effect % ([3]; 200 g/ha, 4 h after contact)
0: Amount of animals that are knocked down/killed ([4]; 0.001 mg Transfluthrin/ml Aceton, 10 min after spray) | Amount of animals that are knocked down/killed ([4]; 0.001 mg Transfluthrin/ml Aceton, 15 min after spray) | Amount of animals that are knocked down/killed ([4]; 0.001 mg Transfluthrin/ml Aceton, 20 min after spray) | Amount of animals that are knocked down/killed ([4]; 0.001 mg Transfluthrin/ml Aceton, 30 min after spray) | Amount of animals that are knocked down/killed ([4]; 0.001 mg Transfluthrin/ml Aceton, 240 min after spray)
